Data set [1] deals with LAPC4 prostate cancer cell line. In words: Cell survival of LAPC4 cells grown with MDV3100, R1881, Dex, Mif, GSK650394. In kind it is cell-based, human. The text has this: (§1) GR Antagonist Studies. […]. SGK1-FLAG or vector was stably expressed and cellular viability, secreted PSA, and protein lysates were collected.
Data set [2] concerns CWR-22RV1 (22RV1) prostate cancer cell line. In words: Cell survival of CWR-22RV1 cells grown with MDV3100, R1881, Dex, GSK650394. The format is cell-based, human.
Source text: as §1

For the next data set, the system named is LAPC4 cell line. In words: GR expression following MDV3100 treatment, LAPC4. In kind it is cell-based, human.
Another data set has as its system CWR-22RV1 cell line. In words: GR expression following MDV3100 treatment, CWR-22RV1. The format is cell-based, human.
Another data set has as its system SGK1. In words: Expression of SGK1 in prostate cancer cell lines. In kind it is cell-based, human. To be noted: MDV3100, and addition of Dex.
Source text: as §1

For data set [3], the system named is CRPC cell lines. In words: GR expression level in CRPC cell lines. In kind it is cell-based, human. The conditions noted are these: addition of MDV3100, within 3-7 days.
In data set [4] the test system is LNCaP cells engineered to express elevated levels of AR. To be noted: cited from earlier work.
A further data set has as its system breast cancer cell. To be noted: cited from earlier work.
Data set [5] has as its system metastatic castration-resistant prostate cancer patients. The conditions noted are these: cited from earlier work.
Data set [6] relates to prostate specific antigen serum levels. To be noted: after a month of taking the medicine; cited from earlier work.
Data set [7] concerns castration-resistant prostate cancer patients who have received prior docetaxel. To be noted: cited from earlier work.
In data set [8] the test system is CRPC cell lines. In words: Proliferation / growth of castrate-resistant prostate cancer cell lines. In kind it is cell-based, human.
Source text: as §1

For data set [9] the following is noted: cited from earlier work.
For data set [10] the following is noted: at 9 months; cited from earlier work.
In a further data set the test system is advanced prostate cancer. The conditions noted are these: cited from earlier work.

Like-named read-outs stand apart in the source and are kept apart here. Some results are limits rather than exact numbers.

On to `O=C(O)c1ccc(-c2c[nH]c3ncc(-c4ccccc4)cc23)cc1C1CCCC1` [GSK650394], for which the “% survival relative to R1881+Dex control” value in [1] (LAPC4, GSK650394 added to MDV3100+Dex) was found to be 19%. Also, the “cell survival following treatment with the SGK1 inhibitor” value in data set [2] (results similar to LAPC4) is listed as “impaired”.

On to `CNC(=O)c1ccc(N2C(=S)N(c3ccc(C#N)c(C(F)(F)F)c3)C(=O)C2(C)C)cc1F` [MDV3100], for which the “reduction in cell death compared to R1881+Dex control” value in data set [1] (LAPC4) is 26%. The “cell survival compared to R1881 control” value in [1] (LAPC4, MDV3100 with vs without Dex) is 47%. Moreover, the “survival under MDV3100 treatment” value is 61% in data set [1] (SGK1-Flag over-expressing LAPC4 cells) and 24% in data set [1] (vector control LAPC4 cells). In addition, the cell survival in data set [2] (MDV3100 with vs without Dex) was 51%. The GR expression entry in the data set with LAPC4 cell line and in the data set on CWR-22RV1 cell line was “increased” in each case. The “Expression of SGK1” value in the data set on SGK1 is on record as “reduced”. Moreover, in the data set on CRPC cell lines [3], the GR expression level entry is “significantly increases”. In addition, the “expression of androgen dependent genes PSA and TMPRSS2” value in data set [4] is “down regulated”. In the data set with breast cancer cell, the “breast cancer cell growth” value is “inhibits breast cancer cell growth”. Moreover, the “Median time to radiographic progression” value is 56 weeks in [5] (chemo-naive patients) and 25 weeks in data set [5] (post-chemotherapy population). Also, the “patients with PSA level decreased more than 50 percent” value in data set [5] (chemo-naive patients) is recorded as 40/65; in data set [5] (chemotherapy-treated patients), 38/75. The “decrease in prostate specific antigen serum levels” value in [6] is reported as at most 89%. Further, the “lived longer than those taking placebo” value in data set [7] (AFFIRM interim analysis) is “approximately 5 months”. Further, in data set [7] (in vivo), the “median survival after progression on MDV3100” value is listed as “under 1 year”. Also, the survival advantage in data set [7] (phase III, reported in 2012) is on record as 4-5 month.

As to `CC#C[C@]1(O)CC[C@H]2[C@@H]3CCC4=CC(=O)CCC4=C3[C@@H](c3ccc(N(C)C)cc3)C[C@@]21C` [Mif, mifepristone], the “change in survival compared to R1881+Dex control” value in data set [1] (LAPC4, addition of Mif alone) is reported as “no change in survival”. Further, in the data set on CRPC cell lines [8], the “proliferation with addition of a GR inhibitor to MDV3100 under GR activation” value is reported as “restoring the decrease in proliferation”.

Regarding `CC(C)C(=O)Nc1ccc([N+](=O)[O-])c(C(F)(F)F)c1` [flutamide], the hepatic impairment result in data set [9] (doses of 125 mg/day or less) was “No cases of hepatic impairment”. The hepatotoxicity result in data set [9] (warnings from patients using 750 mg daily) is “fatal hepatotoxicity has been reported”.

Consider `CCNC(=O)[C@@H]1CCCN1C(=O)[C@H](CCCNC(=N)N)NC(=O)[C@H](CC(C)C)NC(=O)[C@@H](CC(C)C)NC(=O)[C@H](Cc1ccc(O)cc1)NC(=O)[C@H](CO)NC(=O)[C@H](Cc1c[nH]c2ccccc12)NC(=O)[C@H](Cc1c[nH]cn1)NC(=O)[C@@H]1CCC(=O)N1` [leuprolide], for which the Overall survival in data set [10] is recorded as 90.5%. The cardiovascular toxicity entry in the data set with advanced prostate cancer (human, in vivo) is “lower incidence of cardiovascular toxicity”. The “reducing serum testosterone to castrate levels” value in the data set on advanced prostate cancer (monthly depot) is on record as “equivalent to 3 mg of DES”.

With `CC(C)C[C@H](NC(=O)[C@@H](Cc1c[nH]c2ccccc12)NC(=O)[C@H](Cc1ccc(O)cc1)NC(=O)[C@H](CO)NC(=O)[C@H](Cc1c[nH]c2ccccc12)NC(=O)[C@H](Cc1c[nH]cn1)NC(=O)[C@@H]1CCC(=O)N1)C(=O)N[C@@H](CCCNC(=N)N)C(=O)N1CCC[C@H]1C(=O)NCC(N)=O` [triptorelin], in data set [10], the Overall survival is on record as 97%.

(Values after US12648951B2, “Methods of treating castration-resistant prostate cancer with glucocorticoid receptor antagonists, androgen deprivation therapy and anti-androgen receptor therapy” (University of Chicago, priority 2012, dated 2026).)
